# Like-named read-outs stand apart in the source and are kept apart here. Marks after values point to notes of the source that are not given here.
# Assays:
# [1] = tested on: Vancomycin-resistant Enterococci (VRE) clinical isolate RBWH1; test: MIC by broth microdilution (CLSI); format: cell-based, Enterococcus; details: for antibiotic sensitivity of resistant strain: addition of sub-inhibitory PBT2+zinc(II) ions
# Protocol: (§1) J. Path. Bact. […] Proc. Soc.
# (§2) MIC assays were carried out in biological triplicates.
# (§3) M100 Performance Standards for Antimicrobial Susceptibility Testing, 27th Edition.
# [2] = tested on: Methicillin-resistant Staphylococcus aureus (MRSA) strain USA300; test: MIC by broth microdilution (CLSI)
# Protocol: GAS HKU16, MRSA USA300, VRE RBWH1, Klebsiella pneumoniae strain MS6771, E. coli strain MS8345 and Streptococcus pneumoniae strain 23F were grown in Todd-Hewitt broth (THB) or agar with 1% yeast extract (THY) [Todd, E. W. & Hewitt, L. F. A new culture medium for the production of antigenic streptococcal haemolysin. […] Bacteria were routinely grown at 37° C. in ambient air.
# MICs were determined by broth microdilution in accordance to CLSI guidelines (“Methods for Dilution Antimicrobial Susceptibility Tests for Bacteria That Grow Aerobically”, Clinical and Laboratory Standards Institute) [Clinical and Laboratory Standards Institute. […] For MRSA, VRE, Klebsiella pneumoniae and E. coli the assays were performed in MHB, and for GAS and Streptococcus pneumoniae MHB+2.5% lysed horse blood (LHB) was used. The bacterial inoculum was prepared by direct colony suspension aiming for 2-8×10^5 colony forming units (CFU)/mL bacteria per well. Antibiotics/compounds were serially diluted two-fold across the 96-well plate, the last column contained no antibiotics/compounds. The inoculum was added to the plate containing antibiotic/compound and incubated for 16-24 h at 35+/−2° C. […] MIC assays were carried out in biological triplicates.
# Using Clinical and Laboratory Standards Institute guidelines for antimicrobial sensitivity testing [Clinical and Laboratory Standards Institute.
# [3] = tested on: GAS strain HKU16 (Streptococcus pyogenes strain HKU16); test: microbe, parasite or virus in culture; format: cell-based
# Protocol: as §1, §2, §3
# [4] = tested on: VRE; test: Murine wound infection model; format: in vivo, BALB/c mice; details: 4 days
# Source text: For wound infection, 4-7 week old female BALB/c mice were used and housed in individual cages [Pandey, M. et al. A synthetic M protein peptide synergizes with a CXC chemokine protease to induce vaccine-mediated protection against virulent streptococcal pyoderma and bacteremia. J Immunol 194, 5915-5925, doi:10.4049/jimmunol.1500157 (2015)]. The neck area of the mice was shaved and residual hair removed using Nair (Church & Dwight) prior to the experiment. On the day of infection, mice were anesthetized by inhalation of methoxyflurane and a small superficial scarification was made on the shaved skin using a metal file. For infection, 5×10^6-2×10^7 CFU GAS or 5×10^5-2×10^6 CFU MRSA/VRE were applied onto the scarified skin. […] Mice were treated with ointment twice daily and a total of 9 treatments were applied. […] […] After four days treatment, the mice were euthanized, the scarified skin was excised, and washed twice in PBS by vortexing for 30 seconds. […] Each treatment group contained six mice and statistical significance was calculated using an unpaired t-test (non-parametric).
# [5] = tested on: Klebsiella pneumoniae strain MS6771; test: MIC by broth microdilution (CLSI); format: cell-based
# [6] = tested on: A. baumannii strain 42-A; test: MIC by broth microdilution (CLSI); format: cell-based, Acinetobacter baumannii; details: Untreated
# Protocol: (§4) They were obtained from Jan Bell, Australian Centre of Microbial Resistance Ecology (ACARE), University of Adelaide, Australia.
# (§5) (2017)]. […] MIC assays were carried out in biological triplicates.
# [7] = tested on: MCR-1 E. coli strain MS8345; test: MIC by broth microdilution (CLSI); format: cell-based, Escherichia coli; details: for antibiotic sensitivity of resistant strain: MCR1-positive E. coli MS8345; for MIC: MCR-1 E. coli
# Protocol: as §1
# J Infect Dis. 1995 171:890-6). E. coli strain MS8345 is a MCR-1 resistant clinical isolate supplied by Prof. D. L. Paterson, University of Queensland Centre for Clinical Research.
# as §5
# [8] = tested on: P. aeruginosa strain 253-43-C; test: MIC by broth microdilution (CLSI); format: cell-based, Pseudomonas aeruginosa
# Protocol: as §4, §5
# [9] = tested on: GAS; test: Drop test assay, growth on THY agar; format: cell-based, Streptococcus pyogenes; details: PBT2 (1.5 μM), zinc(II) ions (400 μM)
# Protocol: (§6) FIG. 1a illustrates growth of GAS, MRSA and VRE on THY agar in the presence or absence of PBT2 (1.5 μM) and zinc(II) ions (400 μM).
# (§7) Bacteria were diluted from overnight cultures to get a starting OD600 of 0.01 in THY. Once the bacteria grew to an OD600 of 0.6, the culture were serially diluted in PBS and 5 μL of each dilution (undiluted, 10^−1, 10^−2, 10^−3, 10^−4, 10^−5) was plated on THY agar plates with or without zinc (400 μM) and/or PBT2 ([…]). Plates were incubated at 37° C. overnight. Drop tests were undertaken in biological triplicates.
# [10] = tested on: MRSA; test: Drop test assay, growth on THY agar; format: cell-based, Staphylococcus aureus; details: PBT2 (1.5 μM), zinc(II) ions (400 μM)
# Protocol: as §6, §7
# [11] = tested on: VRE; test: Drop test assay, growth on THY agar; format: cell-based, Enterococcus; details: PBT2 (1.5 μM), zinc(II) ions (400 μM)
# Protocol: as §6, §7
# [12] = humans; up to 250 mg/day (oral) for 12 weeks; cited from earlier work
# [13] = MRSA, RA-HQ-12: 3.5 μM, Zn: […], oxacillin with 2% NaCl
# [14] = MRSA, RA-HQ-12: 3.5 μM, oxacillin with 2% NaCl
# [15] = K. pneumoniae, RA-HQ-12: 16 μM, Zn: 64 μM
compound,measurement,setting,value
"CN[C@H](CC(C)C)C(=O)N[C@H]1C(=O)N[C@@H](CC(N)=O)C(=O)N[C@H]2C(=O)N[C@H]3C(=O)N[C@H](C(=O)N[C@H](C(=O)O)c4cc(O)cc(O)c4-c4cc3ccc4O)[C@H](O)c3ccc(c(Cl)c3)Oc3cc2cc(c3O[C@@H]2O[C@H](CO)[C@@H](O)[C@H](O)[C@H]2O[C@H]2C[C@](C)(N)[C@H](O)[C@H](C)O2)Oc2ccc(cc2Cl)[C@H]1O [Vancomycin, vancomycin]",MIC,"[1]; Enterococcus, VRE, VRE RBWH1, CQ: 0 μM, Zinc: 0 μM",> 128 µg/mL
same,MIC,"[1]; Enterococcus, VRE, VRE RBWH1, CQ: 2.5 μM",> 128 µg/mL
same,MIC,"[1]; Enterococcus, VRE, VRE RBWH1, CQ: 2.5 μM, Zinc: 32 μM",1 µg/mL
same,MIC,"[1]; Enterococcus, VRE, VRE RBWH1, PBT2: 0 μM, Zinc: 0 μM",> 128 µg/mL
same,MIC,"[1]; Enterococcus, VRE, VRE RBWH1, PBT2: 1.75 μM",> 128 µg/mL
same,MIC,"[1]; Enterococcus, VRE, VRE RBWH1, PBT2: 1.75 μM, Zinc: […]",1 to 2 µg/mL
same,MIC,"[1]; Enterococcus, VRE, VRE RBWH1, Zinc: 32 μM",> 128 µg/mL
same,MIC,"[1]; Enterococcus, VRE, VRE RBWH1, Zinc: […] (PBT2 panel)",> 128 µg/mL
same,MIC,"[1]; Enterococcus, VRE, RA-HQ-12: 0 μM, Zn: 0 μM",> 128 µg/mL
same,MIC,"[1]; Enterococcus, VRE, RA-HQ-12: 3.5 μM",> 128 µg/mL
same,MIC,"[1]; Enterococcus, VRE, RA-HQ-12: 3.5 μM, Zn: […]",> 128 µg/mL
same,MIC,"[1]; Enterococcus, VRE, Zn: […] (RA-HQ-12 panel)",> 128 µg/mL
same,antibiotic sensitivity of resistant strain,[1]; VRE RBWH1,became sensitive
same,MIC,[2]; [13],1 µg/mL
same,MIC,[2]; [14],1 µg/mL
same,MIC,[2]; Staphylococcus aureus,1 µg/mL
same,MIC,"[3]; Streptococcus pyogenes, GAS, RA-HQ-12: 3.5 μM",0.5 µg/mL
same,MIC,"[3]; Streptococcus pyogenes, GAS, RA-HQ-12: 3.5 μM, Zn: […]",0.25 µg/mL
same,MIC,"[3]; Streptococcus pyogenes, GAS, Zn: […] (RA-HQ-12 panel)",0.5 µg/mL
same,MIC,"[3]; Streptococcus pyogenes, GAS, RA-HQ-12: 0 μM, Zn: 0 μM",0.5 µg/mL
same,bacterial burden at the site of infection (CFUs),"[4]; 1.5% vancomycin in combination with 2 mM PBT2 + 25 mM ZnSO4, ointment twice daily",significantly reducing infection
same,bacterial burden at the site of infection (CFUs),"[4]; treatment alone: 2 mM PBT2 + 25 mM ZnSO4, or 1.5% vancomycin, ointment twice daily",Neither antibiotic nor sub-inhibitory concentrations of PBT2+zinc(II) ions alone reduced bacterial burden
same,MIC,"[5]; K. pneumoniae, RA-HQ-12: 16 μM",>128 µg/mL
same,MIC,[5]; [15],>128 µg/mL
same,MIC,"[5]; K. pneumoniae, Zn: 64 μM",>128 µg/mL
same,MIC,"[5]; Klebsiella pneumoniae, MS6771",> 128 µg/mL
colistin,MIC,[6],>64 µg/mL
same,antibiotic sensitivity of resistant strain,[7]; addition of sub-inhibitory PBT2+zinc(II) ions,became sensitive
same,antibiotic sensitivity of resistant strain,"[7]; combination with PBT2, no zinc",resulted in sensitivity
same,MIC,"[7]; CQ: 0 μM, Zinc: 0 μM",8 µg/mL
same,MIC,[7]; CQ: 5 μM,2 µg/mL
same,MIC,"[7]; CQ: 5 μM, Zinc: 25 μM",0.5 to 1 µg/mL
same,MIC,"[7]; PBT2: 0 μM, Zinc: 0 μM",8 µg/mL
same,MIC,[7]; PBT2: 7 μM,1 µg/mL
same,MIC,"[7]; PBT2: 7 μM, Zinc: 200 μM",0.25 µg/mL
same,MIC,[7]; Zinc: 25 μM,8 µg/mL
same,MIC,[7]; Zinc: 200 μM,8 µg/mL
same,MIC,"[1]; VRE RBWH1, CQ: 2.5 μM, Zinc: 32 μM",0.5 to 1 µg/mL
same,MIC,"[1]; VRE RBWH1, PBT2: 1.75 μM, Zinc: […]",0.5 µg/mL
same,antibiotic resensitization,"[1]; VRE RBWH1, RA-HQ-12+zinc(II) ions (ZnSO4)",resensitize
same,antibiotic sensitivity of resistant strain,[1]; VRE RBWH1,became sensitive
same,MIC,"[1]; VRE, RA-HQ-12: 3.5 μM",32 µg/mL
same,MIC,"[1]; VRE, RA-HQ-12: 3.5 μM, Zn: […]",2-4^# μg/mL
same,MIC,"[2]; MRSA USA300, CQ: 1 μM, Zinc: 32 μM",2 µg/mL
same,MIC,"[2]; MRSA USA300, PBT2: 2 μM, Zinc: 50 μM",2 µg/mL
same,antibiotic resensitization,"[2]; MRSA USA 300, RA-HQ-12+zinc(II) ions (ZnSO4)",resensitize
same,antibiotic sensitivity of resistant strain,"[2]; MRSA USA300, addition of sub-inhibitory PBT2+zinc(II) ions",became sensitive
same,MIC,[2]; [13],8 µg/mL
same,MIC,[2]; [14],64 µg/mL
same,antibiotic resensitization,"[3]; GAS HKU16, RA-HQ-12+zinc(II) ions (ZnSO4)",resensitize
same,antibiotic sensitivity of resistant strain,"[3]; GAS HKU16, addition of sub-inhibitory PBT2+zinc(II) ions",became sensitive
same,MIC,"[3]; GAS, RA-HQ-12: 3.5 μM, Zn: […]",2-4^# μg/mL
same,MIC,"[3]; Streptococcus pyogenes HKU16, CQ: 6 μM",64 µg/mL
same,MIC,"[3]; Streptococcus pyogenes HKU16, CQ: 6 μM, Zinc: 80 μM",1 µg/mL
same,MIC,"[3]; Streptococcus pyogenes HKU16, PBT2: 4.75 μM",32 µg/mL
same,MIC,"[3]; Streptococcus pyogenes HKU16, PBT2: 4.75 μM, Zinc: […]",0.5-1^ μg/mL
same,MIC,[8]; PBT2,1 µg/mL
same,MIC,[8]; Untreated,8 µg/mL
same,MIC,"[5]; K. pneumoniae, RA-HQ-12: 0 μM, Zn: 0 μM",64 µg/mL
same,MIC,"[5]; K. pneumoniae, RA-HQ-12: 16 μM",32 µg/mL
same,MIC,[5]; [15],4^# μg/mL
same,MIC,"[5]; K. pneumoniae, Zn: 64 μM",64 µg/mL
same,antibiotic resensitization,"[5]; Klebsiella pneumoniae MS6771, RA-HQ-12+zinc(II) ions (ZnSO4)",resensitize
same,antibiotic sensitivity of resistant strain,"[5]; Klebsiella pneumoniae MS6771, addition of sub-inhibitory PBT2+zinc(II) ions",became sensitive
same,antibiotic sensitivity of resistant strain,"[5]; Klebsiella pneumoniae MS6771, combination with PBT2, no zinc",resulted in sensitivity
same,MIC,"[5]; Klebsiella pneumoniae, CQ: 0 μM, Zinc: 0 μM",64 µg/mL
same,MIC,"[5]; Klebsiella pneumoniae, CQ: 64 μM",0.5 µg/mL
same,MIC,"[5]; Klebsiella pneumoniae, CQ: 64 μM, Zinc: 256 μM",0.5 µg/mL
same,MIC,"[5]; Klebsiella pneumoniae, PBT2: 0 μM, Zinc: 0 μM",32 to 64 µg/mL
same,MIC,"[5]; Klebsiella pneumoniae, Zinc: 256 μM (CQ panel)",32 to 64 µg/mL
same,MIC,"[5]; Klebsiella pneumoniae, Zinc: 256 μM (PBT2 panel)",32 to 64 µg/mL
"CN(C)Cc1ccc2c(Cl)cc(Cl)c(O)c2n1 [PBT2, 5,7-dichloro-2-[(dimethylamino)methyl]-8-quinolinol]",antibacterial activity,[9],neither PBT2 nor zinc(II) ions (in the form of zinc chloride) displayed antibacterial activity
same,MIC,"[1]; Enterococcus, VRE RBWH1, substance alone, read-out: MIC",1.9 µM
same,MIC,"[2]; Staphylococcus aureus, MRSA USA300, substance alone",3.75 µM
same,MIC,"[3]; Streptococcus pyogenes, GAS HKU 16, substance alone, read-out: MIC",> 30 µM
same,antibacterial activity,[10],neither PBT2 nor zinc(II) ions (in the form of zinc chloride) displayed antibacterial activity
same,antibacterial activity,[11],neither PBT2 nor zinc(II) ions (in the form of zinc chloride) displayed antibacterial activity
same,safety and tolerability,[12],safe and well tolerated
